In patent US20250092039A1, “GLUTARIMIDE-CONTAINING PAN-KRAS-MUTANT DEGRADER COMPOUNDS AND USES THEREOF” (Tiger Biotherapeutics Inc., priority 2022, published 2025) one finds GI50, DC50 and IC50 data, which are given here for 13 compounds.

What is called GI50 is the concentration at which growth is held to half of that of the control. A word on the DC50: it is the concentration giving 50% degradation. Higher therefore signals degradation only at high concentration. For orientation: IC50 means the concentration that inhibits the measured activity by half. Low values mean greater potency, high ones weaker potency.

For assay [1], the system named is SW620 cells. The assay can be described thus: 3D cell growth inhibition of SW620 cells carrying endogenous KRAS G12V mutation (CellTiter-Glo 3D, GI50). The format is cell-based. The note with it: Homo sapiens, SW-620, 144 h; SW620 cells, 6 days; read-out: SW620 3D cell growth GI50. The gist of the method: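 SW620 cells (endogenous KRAS G12V) grown in 3D were dosed next day with compound from DMSO stocks at various concentrations, then incubated 6 days at 37° C.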
(Cellular ATP, detected with luciferase, serves as a proxy for viable cell number.)

The target of assay [2] is KRAS G12V (Homo sapiens (Human), UniProt P01116, G12V). The experiment in a line: KRAS G12V degradation in SW620 cells (Western blot, DC50). The note with it: 24 hours. The format is cell-based. The gist of the method: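 SW620 cells (homozygous KRAS G12V) were treated with compound for 24 hours at 37° C. KRAS in lysates was measured by Western blot with fluorescent secondary antibodies and expressed relative to DMSO vehicle (100%). DC50 came from a four-parameter variable-slope dose-response fit.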
Chain of KRAS G12V (P01116-2 other isoform, or with tags, fused parts or gaps G12V): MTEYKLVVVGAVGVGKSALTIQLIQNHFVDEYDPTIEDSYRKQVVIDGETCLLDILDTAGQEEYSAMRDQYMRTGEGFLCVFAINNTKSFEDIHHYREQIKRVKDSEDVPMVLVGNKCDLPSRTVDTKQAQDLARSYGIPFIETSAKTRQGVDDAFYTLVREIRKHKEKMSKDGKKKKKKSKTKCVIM
Background: In western blotting, separated proteins are transferred to a membrane and probed.

The target in assay [3] is KRAS-G12V/RAF1 (Homo sapiens (Human), UniProt P01116, G12V). The assay can be described thus: KRAS/RAF1 binding inhibition assay (AlphaScreen). The gist of the method: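 Binding of GppNHp-loaded KRAS G12V to the RAF1 RBD was measured by AlphaScreen with test compound present in 2% DMSO (final), 60 min incubation at 4° C. Signals were converted to % inhibition versus DMSO, and IC50 was obtained by variable-slope nonlinear regression.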
Chain of KRAS-G12V/RAF1 (P01116-2 other isoform, or with tags, fused parts or gaps G12V): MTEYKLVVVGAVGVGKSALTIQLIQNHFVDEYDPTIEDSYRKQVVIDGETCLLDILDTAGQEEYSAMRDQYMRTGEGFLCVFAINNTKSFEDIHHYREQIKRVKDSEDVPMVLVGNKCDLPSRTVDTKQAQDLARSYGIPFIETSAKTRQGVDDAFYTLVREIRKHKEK
In general terms: In Alpha technology, singlet oxygen from a donor bead excites a nearby acceptor bead.

Where only a bound is given, the exact number is not on record here.

For the compound `CCc1c(F)ccc2cc(O)cc(-c3ncc4c(N5CCOC[C@@](C)(O)C5)nc(OCC5(CN6CCC7(CC6)CC(CN6CCN(c8ccc9c(c8)CN([C@H]8CCC(=O)NC8=O)C9=O)CC6)C7)CC5)nc4c3F)c12` [Compound 105, (S)-3-(5-(4-((7-((1-(((7-(8-ethyl-7-fluoro-3-hydroxynaphthalen-1-yl)-8-fluoro-4-((S)-6-hydroxy-6-methyl-1,4-oxazepan-4-yl)pyrido[4,3-d]pyrimidin-2-yl)oxy)methyl)cyclopropyl)methyl)-7-azaspiro[3.5]nonan-2-yl)methyl)piperazin-1-yl)-1-oxoisoindolin-2-yl)piperidine-2,6-dione], the GI50 in assay [1] is above 100 nM. The compound further yielded a DC50 in assay [2] above 100 nM. This compound also yielded an IC50 in assay [3] of 20 to 200 nM.
As for `CCc1cccc2cc(O)cc(-c3ncc4c(N5CCC[C@@](C)(O)C5)nc(OCC5(CN6CC[C@@H](CN7CC8(CCN(c9ccc%10c(c9)CN(C9CCC(=O)NC9=O)C%10=O)CC8)C7)C6)CC5)nc4c3F)c12` (stereo partly drawn) [Compound 18, 3-(5-(2-(((R)-1-((1-(((7-(8-ethyl-3-hydroxynaphthalen-1-yl)-8-fluoro-4-((R)-3-hydroxy-3-methylpiperidin-1-yl)pyrido[4,3-d]pyrimidin-2-yl)oxy)methyl)cyclopropyl)methyl)pyrrolidin-3-yl)methyl)-2,7-diazaspiro[3.5]nonan-7-yl)-1-oxoisoindolin-2-yl)piperidine-2,6-dione], in assay [1], the GI50 was 10 to 100 nM. In addition, the DC50 in assay [2] was above 100 nM. In addition, the IC50 in assay [3] was below 20 nM.
Taken in the same sequence, the figures for `CCc1c(F)ccc2cc(O)cc(-c3ncc4c(N5CCC[C@@](C)(O)C5)nc(OCC5(CN6CCC(N7CCC8(CC7)CN(c7ccc9c(c7)CN(C7CCC(=O)NC7=O)C9=O)C8)CC6)CC5)nc4c3F)c12` (stereo partly drawn) [Compound 151, 3-(5-(7-(1-((1-(((7-(8-ethyl-7-fluoro-3-hydroxynaphthalen-1-yl)-8-fluoro-4-((R)-3-hydroxy-3-methylpiperidin-1-yl)pyrido[4,3-d]pyrimidin-2-yl)oxy)methyl)cyclopropyl)methyl)piperidin-4-yl)-2,7-diazaspiro[3.5]nonan-2-yl)-1-oxoisoindolin-2-yl)piperidine-2,6-dione] were below 10 nM, below 1 nM and 20 to 200 nM.
Regarding `CCc1c(F)ccc2cc(O)cc(-c3ncc4c(N5CCC[C@@](C)(O)C5)nc(OCC5(CN6CCC7(CC6)CN(C6CCN(c8ccc9c(c8)CN(C8CCC(=O)NC8=O)C9=O)CC6)C7)CC5)nc4c3F)c12` (stereo partly drawn) [Compound 155, 3-(5-(4-(7-((1-(((7-(8-ethyl-7-fluoro-3-hydroxynaphthalen-1-yl)-8-fluoro-4-((R)-3-hydroxy-3-methylpiperidin-1-yl)pyrido[4,3-d]pyrimidin-2-yl)oxy)methyl)cyclopropyl)methyl)-2,7-diazaspiro[3.5]nonan-2-yl)piperidin-1-yl)-1-oxoisoindolin-2-yl)piperidine-2,6-dione], in assay [1], the GI50 was below 10 nM. For the same compound, the DC50 in assay [2] is below 1 nM. Also, the IC50 in assay [3] is below 20 nM.
Taken in the same sequence, the figures for `CCc1c(F)ccc2cc(O)cc(-c3ncc4c(N5CCC[C@@](C)(O)C5)nc(OCC5(CN6CC(N7CCC8(CCN(c9ccc%10c(c9)CN(C9CCC(=O)NC9=O)C%10=O)CC8)CC7)C6)CC5)nc4c3F)c12` (stereo partly drawn) [Compound 153, 3-(5-(9-(1-((1-(((7-(8-ethyl-7-fluoro-3-hydroxynaphthalen-1-yl)-8-fluoro-4-((R)-3-hydroxy-3-methylpiperidin-1-yl)pyrido[4,3-d]pyrimidin-2-yl)oxy)methyl)cyclopropyl)methyl)azetidin-3-yl)-3,9-diazaspiro[5.5]undecan-3-yl)-1-oxoisoindolin-2-yl)piperidine-2,6-dione] were below 10 nM, below 1 nM and 20 to 200 nM.
For `CCc1cccc2cc(O)cc(-c3ncc4c(N5CCCOCC5)nc(OCC5(CN6CCC7(CC6)CC(CN6CCN(c8ccc9c(c8)CN([C@H]8CCC(=O)NC8=O)C9=O)CC6)C7)CC5)nc4c3F)c12` [Compound 109, (S)-3-(5-(4-((7-((1-(((7-(8-ethyl-3-hydroxynaphthalen-1-yl)-8-fluoro-4-(1,4-oxazepan-4-yl)pyrido[4,3-d]pyrimidin-2-yl)oxy)methyl)cyclopropyl)methyl)-7-azaspiro[3.5]nonan-2-yl)methyl)piperazin-1-yl)-1-oxoisoindolin-2-yl)piperidine-2,6-dione], in that order: above 100 nM, above 100 nM and above 200 nM.
Taken in the same sequence, the figures for `CCc1c(F)ccc2cc(O)cc(-c3ncc4c(N5CCC[C@@](C)(O)C5)nc(OCC5(CN6CCC7(CC6)CCN(C6CN(c8ccc9c(c8)CN(C8CCC(=O)NC8=O)C9=O)C6)CC7)CC5)nc4c3F)c12` (stereo partly drawn) [Compound 164, 3-(5-(3-(9-((1-(((7-(8-ethyl-7-fluoro-3-hydroxynaphthalen-1-yl)-8-fluoro-4-((R)-3-hydroxy-3-methylpiperidin-1-yl)pyrido[4,3-d]pyrimidin-2-yl)oxy)methyl)cyclopropyl)methyl)-3,9-diazaspiro[5.5]undecan-3-yl)azetidin-1-yl)-1-oxoisoindolin-2-yl)piperidine-2,6-dione] were below 10 nM, 1 to 10 nM and 20 to 200 nM.
For the compound `CCc1cccc2cc(O)cc(-c3ncc4c(N5CCC[C@@](C)(O)C5)nc(OCC5(CN6CCC(CN7CC8(CCN(c9ccc%10c(c9)CN(C9CCC(=O)NC9=O)C%10=O)CC8)C7)CC6)CC5)nc4c3F)c12` (stereo partly drawn) [Compound 19, 3-(5-(2-((1-((1-(((7-(8-ethyl-3-hydroxynaphthalen-1-yl)-8-fluoro-4-((R)-3-hydroxy-3-methylpiperidin-1-yl)pyrido[4,3-d]pyrimidin-2-yl)oxy)methyl)cyclopropyl)methyl)piperidin-4-yl)methyl)-2,7-diazaspiro[3.5]nonan-7-yl)-1-oxoisoindolin-2-yl)piperidine-2,6-dione], the GI50 in assay [1] is 10 to 100 nM. Besides, the DC50 in assay [2] was in the range of 1 to 10 nM. Also, the IC50 in assay [3] was in the range of 20 to 200 nM.
As for `CCc1cccc2cc(O)cc(-c3ncc4c(N5CCC[C@@](C)(O)C5)nc(OCC5(CN6CC(CN7CC8(CCN(c9ccc%10c(c9)CN(C9CCC(=O)NC9=O)C%10=O)CC8)C7)C6)CC5)nc4c3F)c12` (stereo partly drawn) [Compound 17, 3-(5-(2-((1-((1-(((7-(8-ethyl-3-hydroxynaphthalen-1-yl)-8-fluoro-4-((R)-3-hydroxy-3-methylpiperidin-1-yl)pyrido[4,3-d]pyrimidin-2-yl)oxy)methyl)cyclopropyl)methyl)azetidin-3-yl)methyl)-2,7-diazaspiro[3.5]nonan-7-yl)-1-oxoisoindolin-2-yl)piperidine-2,6-dione], the GI50 in assay [1] was above 100 nM. Moreover, in assay [2], the DC50 was above 100 nM. The same compound had an IC50 in assay [3] of 20 to 200 nM.
Take `CCc1cccc2cc(O)cc(-c3ncc4c(N5CCC[C@@](C)(O)C5)nc(OCC5(CN6CCC(N7CC8(CCN(c9ccc%10c(c9)CN([C@H]9CCC(=O)NC9=O)C%10=O)CC8)C7)CC6)CC5)nc4c3F)c12` [Compound 30, (S)-3-(5-(2-(1-((1-(((7-(8-ethyl-3-hydroxynaphthalen-1-yl)-8-fluoro-4-((R)-3-hydroxy-3-methylpiperidin-1-yl)pyrido[4,3-d]pyrimidin-2-yl)oxy)methyl)cyclopropyl)methyl)piperidin-4-yl)-2,7-diazaspiro[3.5]nonan-7-yl)-1-oxoisoindolin-2-yl)piperidine-2,6-dione]: the GI50 in assay [1] is below 10 nM. Moreover, the DC50 in assay [2] lay in the range of 1 to 10 nM. Besides, in assay [3], the IC50 was below 20 nM.
Taken in the same sequence, the figures for `CCc1c(F)ccc2cc(O)cc(-c3ncc4c(N5CCC[C@@](C)(O)C5)nc(OCC5(CN6CCN(CC7CCN(c8ccc9c(c8)CN([C@H]8CCC(=O)NC8=O)C9=O)CC7)CC6)CC5)nc4c3F)c12` [Compound 10, (S)-3-(5-(4-((4-((1-(((7-(8-ethyl-7-fluoro-3-hydroxynaphthalen-1-yl)-8-fluoro-4-((R)-3-hydroxy-3-methylpiperidin-1-yl)pyrido[4,3-d]pyrimidin-2-yl)oxy)methyl)cyclopropyl)methyl)piperazin-1-yl)methyl)piperidin-1-yl)-1-oxoisoindolin-2-yl)piperidine-2,6-dione] were below 10 nM, below 1 nM and 20 to 200 nM.
Taken in the same sequence, the figures for `CCc1c(F)ccc2cc(O)cc(-c3ncc4c(N5CCC[C@@](C)(O)C5)nc(OCC5(CN6CC7(CCN(C8CN(c9ccc%10c(c9)CN(C9CCC(=O)NC9=O)C%10=O)C8)CC7)C6)CC5)nc4c3F)c12` (stereo partly drawn) [Compound 172, 3-(5-(3-(2-((1-(((7-(8-ethyl-7-fluoro-3-hydroxynaphthalen-1-yl)-8-fluoro-4-((R)-3-hydroxy-3-methylpiperidin-1-yl)pyrido[4,3-d]pyrimidin-2-yl)oxy)methyl)cyclopropyl)methyl)-2,7-diazaspiro[3.5]nonan-7-yl)azetidin-1-yl)-1-oxoisoindolin-2-yl)piperidine-2,6-dione] were below 10 nM, 1 to 10 nM and below 20 nM.
Taken in the same sequence, the figures for `C#Cc1c(F)ccc2cc(N)cc(-c3ncc4c(N5CCC[C@@](C)(O)C5)nc(OCC5(CN6CCC(CN7CCN(c8ccc9c(c8)CN([C@H]8CCC(=O)NC8=O)C9=O)CC7)CC6)CC5)nc4c3F)c12` [Compound 118, (S)-3-(5-(4-((1-((1-(((7-(3-amino-8-ethynyl-7-fluoronaphthalen-1-yl)-8-fluoro-4-((R)-3-hydroxy-3-methylpiperidin-1-yl)pyrido[4,3-d]pyrimidin-2-yl)oxy)methyl)cyclopropyl)methyl)piperidin-4-yl)methyl)piperazin-1-yl)-1-oxoisoindolin-2-yl)piperidine-2,6-dione] were above 100 nM, above 100 nM and above 200 nM.
